This is an account of results in US8658683B2, “Combination of alpha-2 receptor agonist (clonidin) and anti-muscarinic agent (oxybutynin) for the treatment of sialorrhoea” (Orient Pharma (Samoa) Co., Ltd, priority 2006, dated 2014).

One data set has as its system healthy male volunteers. Nature of the data set: Saxon test of saliva production, open-label rising dose study. The class given is in vivo, human. The settings on record: for saliva production over time: drug administered alone, pre-dose to 6 h post-dose; for effect of dose on saliva production: drug alone, rising dose levels. As to the method:
The study examined the effects of clonidine and oxybutynin on saliva production in 9 healthy male volunteers. This was an open-label, non-randomised, two-period, rising dose study.
The subjects were assessed on each dosing occasion for saliva production pre-dose and 1 h, 2.5 h, 4 h and 6 h post-dose. Vital signs were recorded at specified times during each study period and adverse events were reported throughout.
Using this information, a mixed effects regression analysis of the % reduction in saliva versus dose with subject as a random effect was performed for both clonidine and oxybutynin. From this model, an approximate ED30 and an ED50 were calculated.
The key observation in this study is based on the Saxon test. See Kohler & Winter, Arthritis Rheum.

Another data set concerns Parkinson's patients. Conditions: 0.15 mg per os, 17 Parkinson's patients; cited from earlier work.
Data set [1] has as its system sialorrhoea induced by clozapine. The settings on record: in vivo; cited from earlier work.
Data set [2] deals with patients with Parkinson's disease. The settings on record: ophthalmic solution given sublingually, cited from earlier work.
Data set [3] concerns patients receiving clozapine with excessive drooling. Conditions: nasal spray 0.03-0.06% sublingually, 8 patients, after several weeks of use; cited from earlier work.
Another data set deals with patients. The settings on record: tablets; cited from earlier work.

Consider `Clc1cccc(Cl)c1N=C1NCCN1` [clonidine], for which the “AUCT of saliva production compared to placebo” value (from here on “AUCT … compared to placebo”) in the data set with healthy male volunteers (50 mcg clonidine) is “reduction in AUCTs”. Besides, the “AUCT … compared to placebo” value in the data set on healthy male volunteers (100 mcg clonidine) is given as “reduction in AUCTs”. Also, in the data set with healthy male volunteers, the “saliva production over time” value is given as “trend towards a reduction in saliva production over time” and the “effect of dose on saliva production” value was “significant with increasing dose levels”. In the data set with Parkinson's patients, the “patients who experienced side-effects” value was “Four of the 17” and the reduction of sialorrhoea result is given as “significantly reduce sialorrhoea”. Also, the “reduction of sialorrhoea induced by clozapine” value in data set [1] is reported as “effective in reducing sialorrhoea”.

Turning to `CCN(CC)CC#CCOC(=O)C(O)(c1ccccc1)C1CCCCC1` (stereo not shown) [oxybutynin], in the data set with healthy male volunteers (10 mg oxybutynin), the “AUCT … compared to placebo” value is listed as “AUCT was reduced”. In addition, in the data set with healthy male volunteers, the “saliva production over time” value is reported as “trend towards a reduction in saliva production over time” and the “effect of dose on saliva production” value is “no significant effects of dose on saliva production”.

On to `CN1[C@@H]2CC[C@H]1C[C@@H](OC(=O)C(CO)c1ccccc1)C2` (stereo partly shown) [atropine], for which the “patients who suffered hallucinations” value in data set [2] (7 patients) is recorded as 2 of the 7. For the same compound, the saliva production entry in data set [2] (small case study) is “significant decline in saliva production”.

In the case of `CC(C)[N+]1(C)[C@@H]2CC[C@H]1C[C@@H](OC(=O)C(CO)c1ccccc1)C2` (stereo partly shown) [ipratropium], in data set [3], the non-responder patients is given as 1 patient, the “patients with full response” value is reported as 2 patients and the “patients with partial response (symptoms controlled for 2-8 hours)” value is given as 5 patients.

In the case of `C[N+]1(C)CCC(OC(=O)C(O)(c2ccccc2)C2CCCC2)C1` (stereo not shown) [glycopyrrolate], the “patients by whom the drug is not well tolerated” value with patients is 20-25 % of patients.
